Experimental data from publication PMC8062851, “2-Methoxyestradiol and its derivatives inhibit store-operated Ca^2+ entry in T cells: Identification of a new and potent inhibitor” (Biochimica et Biophysica Acta. Molecular Cell Research, 2021).
Entries after “also recorded” stand apart in the source; their conditions may differ.

Experiments:
[1] = test system: SERCA pumps; assay: SERCA activity (ATP-induced Ca2+ reuptake) in permeabilized Jurkat T cells; type: cell-based, human
Protocol: 3 ∗ 10^7 Jurkat T-lymphocytes per measurement were centrifuged at 450 ×g for 5 min at room temperature. The pellet was rinsed twice, each time using 10 ml permeabilization buffer 1 (120 mM KCl, 10 mM NaCl, 1.2 mM MgCl2, 0.533 mM CaCl2, 1 mM EGTA and 10 mM HEPES, pH 7.2 (KOH), sterile filtered). Subsequently, the pellet was resuspended in 2 ml permeabilization buffer 1 containing 80 μg/ml saponin (Fluka) and the cells were incubated for 10 min at 37 °C. Subsequently, the cells were centrifuged at 450 ×g for 5 min at room temperature and the cell pellet was washed once in 10 ml permeabilization buffer 2 (120 mM KCl, 10 mM NaCl, 1.2 mM MgCl2 and 10 mM HEPES, pH 7.2 (KOH), sterile filtered). Finally, the cells were taken up in 1 ml permeabilization buffer 2, placed into a cuvette and measured at the fluorescence spectrophotometer. Before the start of the measurement, 0.5 μl of 1 mM Fura2 free acid (dissolved in pure water, final concentration: 0.5 μM), 5 μl of 5 mg/ml creatinkinase (dissolved in permeabilization buffer 2, final concentration: 25 μg/ml, 20 U/ml, Roche) and 10 μl of 2 M creatin phosphate (dissolved in permeabilization buffer 2, final concentration: 20 mM, Calbiochem) were added. Fura2 was used to measure the Ca^2+ concentration and creatinkinase and creatin phosphate were used as ATP-regenerating system. The measurement was controlled by FL Solutions (Version 4.1, Hitachi High-Technologies Corporation). Fura2 was alternatively excited every 2 s at 340 ± 5 nm and 380 ± 5 nm, each 400 ms apart. Fluorescence intensity was measured at an emission wavelength of 495 ± 5 nm for both excitation wavelengths. […] Ca^2+ concentrations were calculated according to Grynkiewicz et al. as described earlier in Section 2.4.
As a quantitative read-out for inhibition of IP3 receptors, the peak [Ca^2+] after IP3 addition was subtracted from the mean [Ca^2+] between 25 and 75 s before IP3 addition (dPeak). […] The rate constant K of the fitted data was used as a quantitative read-out for SERCA pump activity and its inhibition.

[2] = test system: TMBP cells; assay: In vitro activation of TMBP cells by MBP, CD25 surface expression by flow cytometry; type: cell-based, rat
Protocol: In vitro activation assays were performed in 96-well plates. […]. TMBP cell activation on mRNA level was determined using qPCR and on surface protein level using surface marker staining and subsequent flow cytometry analysis.
To assess in vitro T cell activation, surface staining for CD25 (OX39, Bio-Rad) was performed. APC-labelled goat anti-mouse antibody (Jackson ImmunoResearch) was used as secondary antibody. Mouse IgG1κ (MOPC 31C, Sigma-Aldrich) was used as control.
Cytofluorometric analysis was carried out with a CytoFLEX S (Beckman Coulter) operated by CytExpert software (Beckman Coulter). All procedures were performed at 4 °C. Data were analyzed by using FlowJo software (FlowJo, LLC).

[3] = test system: human PBMCs; assay: In vitro activation of human PBMCs by anti-CD3, interferon-γ mRNA by qPCR; type: cell-based; conditions: human PBMC; anti-CD3 stimulation; 24 h; qPCR
Protocol: In vitro activation assays were performed in 96-well plates. Briefly, 10^5 PBMCs isolated from human peripheral blood by Ficoll gradient were added onto plates coated with anti-human CD3 monoclonal antibody (5 μg ml^−1 in PBS, clone OKT3, Biolegend). 2ME2 or STX564 dissolved in DMSO were added in varying concentrations (0.01, 0.1, 1, 10 μM). […]. PBMC activation on mRNA level was determined using qPCR on samples collected 24 h after CD3 stimulation.
Total RNA was isolated using the standard TRIzol method. cDNA was synthesized using the RevertAid First Strand cDNA Synthesis Kit (Thermo Fisher Scientific). Quantitative PCR (qPCR) was performed using the StepOnePlus™ Real-Time PCR System (Applied Biosystems), as previously described [[23], [24], [25]]. Rat TMBP cell data were obtained from three to four independent duplicate measurements. β-actin served as housekeeping gene. Human PBMC data were obtained from two independent healthy donors and duplicate measurements (representative data of one donor are shown). HPRT served as housekeeping gene. For all probes (TaqMan), a combination of 5′-FAM and 3′-TAMRA quencher was used as described.

## CCc1cc2c(cc1OS(N)(=O)=O)CC[C@@H]1[C@@H]2CC[C@]2(C)[C@@H](CC#N)CC[C@@H]12 [STX564, 2-ethyl-3-sulfamoyloxy-17β-cyanomethylestra-1,3,5(10)-triene]
[1]
  effect on SERCA activity (initial slope of [Ca2+] upon ATP addition): Neither STX564, Synta66 nor vehicle DMSO affected ATP-induced Ca^2+ reuptake by SERCA pumps; also recorded: neither STX564 nor Synta66 showed any effect
[2]
  concentration at which up-regulation of CD25 was significantly reduced: ≥ 0.1 µM
[3]
  concentration at which antagonist effects on interferon-γ expression were observed: ≥ 1 µM
